Results: article PMC11977230, “Coevolving residues distant from the ligand binding site are involved in GAF domain function” (Communications Chemistry, 2025)

Key:
[1] = molecular target: T1, WT PDE5 GAFa domain biosensor (GFP^2-GAFa(I159-N316)-RLuc) (Homo sapiens, UniProt O76074); assay: BRET-based GAFa domain conformational biosensor, cGMP dose-response (WT); type: biochemical
T1 construct: plasmids expressing the GAFa domain-based (GFP^2-GAFa(I159-N316)-RLuc); made in house; host or cells: HEK293T cells, transfected; cleared lysate used, not purified
From the text: (§1) Having observed alterations in the structural dynamics in the GAFa domain of PDE5 upon L267A and F295A mutations using MD simulations, we then proceeded to determine the impact of these mutations experimentally. […] (Fig. 4A). Broadly, these changes include a close juxtaposition of the sheet β3 and helix α4 leading to a “closing” of the cGMP binding site, an “inward” movement of sheet β1 and β2 towards the cGMP binding site and an “outward” movement of the loop β2/β3 (Fig. 4A, left panel). Additionally, cGMP binding is associated with a close juxtapositioning of helices α2 and α5 at the N- and C-termini of the GAFa domain, likely associated with the transduction of the allosteric signal from the GAFa domain to the catalytic domain in PDE5 (Fig. 4A, right panel). We decided to take advantage of the latter to monitor cGMP-binding induced conformational change in the GAFa domain through an increase in the BRET efficiency of the GAFa domain biosensor that we have described previously[24] (Fig. 4B). BRET is a biophysical technique that involves resonance energy transfer between a bioluminescent donor and a fluorescent acceptor, the extent of which is dependent on the spectral overlap, distance, and relative orientation between the two reporters. […]

[2] = molecular target: T2, L267A mutant PDE5 GAFa domain biosensor (Homo sapiens, UniProt O76074, L267A); assay: BRET-based GAFa domain conformational biosensor, cGMP dose-response (L267A); type: biochemical; details: 1 µM cGMP
T2 construct: made in house; host or cells: HEK293T cells, transfected; cleared lysate used, not purified
From the text: as §1

[3] = molecular target: T3, F295A mutant PDE5 GAFa domain biosensor (Homo sapiens, UniProt O76074, F295A); assay: BRET-based GAFa domain conformational biosensor, cGMP dose-response (F295A); type: biochemical; details: 1 µM cGMP
T3 construct: made in house; host or cells: HEK293T cells, transfected; cleared lysate used, not purified
From the text: as §1

[4] = molecular target: T4, WT full-length PDE5A2 biosensor (GFP^2-PDE5A2-RLuc) (Homo sapiens, UniProt O76074); assay: BRET-based full-length PDE5A2 conformational biosensor, cGMP dose-response (WT); type: biochemical
T4 construct: the GAFa domain (I159-N316) or the full-length PDE5A2, were flanked by the green fluorescent protein 2 (GFP^2); made in house; host or cells: HEK293T cells, transfected; cleared lysate used, not purified
From the text: (§2) Having elucidated the impact of the L267A and F295A mutations in the isolated GAFa domain, we aimed to investigate their effect on the cGMP-binding induced conformational change in the full-length PDE5 protein. For this, we incorporated the mutations in our previously described BRET-based, full-length PDE5A2 biosensor (Fig. 5A) that reports a conformational change upon cGMP binding to the GAFa, but not the catalytic, domain in the protein[25].
(§3) The design of the BRET^2-based GAFa and full-length PDE5 (A2 isoform) biosensors was described previously[24],[25]. […]
(§4) All assays were performed at 37 °C in 96-well, white, flat-bottom plates. […] Bioluminescence spectra of the WT or the mutant biosensors were acquired over wavelengths ranging between 385 and 665 nm utilizing a grating-based system with 15 nm integration step size, with each individual measurement acquired for 1 s using a Tecan SPARK® multimode microplate reader (Tecan, Switzerland). BRET was determined as a ratio of GFP^2 and RLuc emission, either in the absence or in the presence of the indicated concentrations of cGMP, following a 30-min incubation at 37 °C. Bioluminescence and BRET were measured following the addition of the RLuc substrates, either coelenterazine 400a or Prolume purple (NanoLight Technology, Prolume Ltd., USA). […]

[5] = molecular target: L267A mutant full-length PDE5A2 biosensor (Homo sapiens, UniProt O76074, L267A); assay: BRET-based full-length PDE5A2 conformational biosensor, cGMP dose-response (L267A); type: biochemical
From the text: as §2, §3, §4

[6] = molecular target: F295A mutant full-length PDE5A2 biosensor (Homo sapiens, UniProt O76074, F295A); assay: BRET-based full-length PDE5A2 conformational biosensor, cGMP dose-response (F295A); type: biochemical
From the text: as §2, §3, §4

[7] = tested on: isolated PDE5 GAFa domain; details: cited from earlier work
GAFb domain of PDE2A = tested on: GAFb domain of PDE2A; design: method as in PMID 15210692; details: cGMP-binding GAFb domain of PDE2A; cited from earlier work
[8] = 30 min incubation, mean ± S.D., three experiments, read-out: EC50 of cGMP-induced conformational change (decrease in BRET)

change in BRET in the presence of cGMP ([1]; 1 µM cGMP): increase in BRET | EC50 ([1]; read-out: EC50 of cGMP-induced conformational change (increase in BRET), HEK293T cell lysate, 30 min, 37 °C, mean ± S.D., four experiments): 0.019 ± 0.013 µM | EC50 [4, 8]: 0.073 ± 0.02 µM | maximum BRET change ([4]; cGMP dose-response): -26.60 ± 3.42% | EC50 [5, 8]: 0.181 ± 0.03 µM | maximum BRET change ([5]; cGMP dose-response): −17.43 ± 1.31% | EC50 [6, 8]: 3.4 ± 2.1 µM | maximum BRET change ([6]; cGMP dose-response): −12.60 ± 2.37%
SMILES: Nc1nc2c(ncn2[C@@H]2O[C@@H]3COP(=O)(O)O[C@H]3[C@H]2O)c(=O)[nH]1 [cGMP]
change in BRET in the presence of cGMP [2]: neither the L267A nor the F295A mutant biosensors showed a discernible change in BRET | change in BRET in the presence of cGMP [3]: neither the L267A nor the F295A mutant biosensors showed a discernible change in BRET | affinity for cGMP ([7]; PDE5 GAFa domain): nanomolar affinity | higher affinity for cGMP compared to cAMP ([7]; isolated PDE5 GAFa domain): thousand-fold | fold higher affinity for cGMP (GAFb domain of PDE2A): about 20 fold
